# System: TNF-alpha release in THP-1 cells
# Assay: LPS-induced TNF-alpha release in THP-1 cells
# Assay type: cell-based
# Conditions: Homo sapiens, THP-1, LPS-stimulated THP-1 cells; read-out: 50% inhibition in the LPS-induced TNF-alpha release in THP-1 cells assay at concentrations within the range
# Summary of the method: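 Undifferentiated THP-1 monocytes (1×10^6 cells/ml, 1% FCS) preincubated 1 h at 37° C with compound (1×10^−9 to 1×10^−6 M, 0.3% DMSO), then stimulated with LPS (20 μg/ml) for 18 h. Supernatant TNF-alpha measured by sandwich ELISA (TMB read-out), interpolated from a log/log standard curve (0.125-16 ng/ml).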
row,IC50 [nM],Compound
1,10 to 500,"COc1ccc(C(=O)N2CCC(Cc3ccc(NC(=O)Nc4cc(C(C)(C)C)nn4-c4ccc(C)cc4)cc3)CC2)c(OC)n1 [Compound A224, 1-(5-tert-Butyl-2-p-tolyl-2H-pyrazol-3-yl)-3-{4-[1-(2,6-dimethoxy-pyridine-3-carbonyl)-piperidin-4-ylmethyl]-phenyl}-urea]"
2,10 to 500,"Cc1ccc(-n2nc(C(C)(C)C)cc2NC(=O)Nc2ccc(CC3CCN(C(=O)c4csc(-c5cccnc5)n4)CC3)cc2)cc1 [Compound A225, 1-(5-tert-Butyl-2-p-tolyl-2H-pyrazol-3-yl)-3-{4-[1-(2-pyridin-3-yl-thiazole-4-carbonyl)-piperidin-4-ylmethyl]-phenyl}-urea]"
3,10 to 500,"Cc1ccc(-n2nc(C(C)(C)C)cc2NC(=O)Nc2ccc(CC3CCN(C(=O)c4csc(-c5ccncc5)n4)CC3)cc2)cc1 [Compound A227, 1-(5-tert-Butyl-2-p-tolyl-2H-pyrazol-3-yl)-3-{4-[1-(2-pyridin-4-yl-thiazole-4-carbonyl)-piperidin-4-ylmethyl]-phenyl}-urea]"
4,10 to 500,"Cc1ccc(-n2nc(C(C)(C)C)cc2NC(=O)Nc2ccc(CC3CCN(C(=O)c4cccnc4N)CC3)cc2)cc1 [Compound A231, 1-{4-[1-(2-Amino-pyridine-3-carbonyl)-piperidin-4-ylmethyl]-phenyl}-3-(5-tert-butyl-2-p-tolyl-2H-pyrazol-3-yl)-urea]"
5,10 to 500,"Cc1ccc(-n2nc(C(C)(C)C)cc2NC(=O)Nc2ccc(CC3CCN(C(=O)c4cc5ccccc5o4)CC3)cc2)cc1 [Compound A232, 1-{4-[1-(Benzofuran-2-carbonyl)-piperidin-4-ylmethyl]-phenyl}-3-(5-tert-butyl-2-p-tolyl-2H-pyrazol-3-yl)-urea]"
6,10 to 500,"Cc1ccc(-n2nc(C(C)(C)C)cc2NC(=O)Nc2ccc(CC3CCN(C(=O)c4ccc(S(C)(=O)=O)cc4Cl)CC3)cc2)cc1 [Compound A233, 1-(5-tert-Butyl-2-p-tolyl-2H-pyrazol-3-yl)-3-{4-[1-(2-chloro-4-methanesulfonyl-benzoyl)-piperidin-4-ylmethyl]-phenyl}-urea]"
7,10 to 500,"Cc1ccc(-n2nc(C(C)(C)C)cc2NC(=O)Nc2ccc(CC3CCN(C(=O)c4cccnc4Cl)CC3)cc2)cc1 [Compound A235, 1-(5-tert-Butyl-2-p-tolyl-2H-pyrazol-3-yl)-3-{4-[1-(2-chloro-pyridine-3-carbonyl)-piperidin-4-ylmethyl]-phenyl}-urea]"
8,10 to 500,"Cc1ccc(-n2nc(C(C)(C)C)cc2NC(=O)Nc2ccc(CC3CCN(C(=O)Cc4ccccc4F)CC3)cc2)cc1 [Compound A236, 1-(5-tert-Butyl-2-p-tolyl-2H-pyrazol-3-yl)-3-(4-{1-[2-(2-fluoro-phenyl)-acetyl]-piperidin-4-ylmethyl}-phenyl)-urea]"
9,10 to 500,"Cc1ccc(-n2nc(C(C)(C)C)cc2NC(=O)Nc2ccc(CC3CCN(C(=O)c4ccco4)CC3)cc2)cc1 [Compound A237, 1-(5-tert-Butyl-2-p-tolyl-2H-pyrazol-3-yl)-3-{4-[1-(furan-2-carbonyl)-piperidin-4-ylmethyl]-phenyl}-urea]"
10,10 to 500,"CCCCC#CC(=O)N1CCC(Cc2ccc(NC(=O)Nc3cc(C(C)(C)C)nn3-c3ccc(C)cc3)cc2)CC1 [Compound A238, 1-(5-tert-Butyl-2-p-tolyl-2H-pyrazol-3-yl)-3-[4-(1-hept-2-ynoyl-piperidin-4-ylmethyl)-phenyl]-urea]"
11,10 to 500,"Cc1ccc(-n2nc(C(C)(C)C)cc2NC(=O)Nc2ccc(CC3CCN(C(=O)c4cc(O)nc5ccccc45)CC3)cc2)cc1 [Compound A240, 1-(5-tert-Butyl-2-p-tolyl-2H-pyrazol-3-yl)-3-{4-[1-(2-hydroxy-quinoline-4-carbonyl)-piperidin-4-ylmethyl]-phenyl}-urea]"
12,10 to 500,"Cc1ccc(-n2nc(C(C)(C)C)cc2NC(=O)Nc2ccc(CC3CCN(C(=O)c4cc5cnccc5nc4C)CC3)cc2)cc1 [Compound A243, 1-(5-tert-Butyl-2-p-tolyl-2H-pyrazol-3-yl)-3-{4-[1-(2-methyl-[1,6]naphthyridine-3-carbonyl)-piperidin-4-ylmethyl]-phenyl}-urea]"
13,10 to 500,"Cc1ccc(-n2nc(C(C)(C)C)cc2NC(=O)Nc2ccc(CC3CCN(C(=O)c4ccoc4C)CC3)cc2)cc1 [Compound A244, 1-(5-tert-Butyl-2-p-tolyl-2H-pyrazol-3-yl)-3-{4-[1-(2-methyl-furan-3-carbonyl)-piperidin-4-ylmethyl]-phenyl}-urea]"
14,10 to 500,"Cc1ccc(-n2nc(C(C)(C)C)cc2NC(=O)Nc2ccc(CC3CCN(C(=O)c4cc5cccnc5nc4C)CC3)cc2)cc1 [Compound A249, 1-(5-tert-Butyl-2-p-tolyl-2H-pyrazol-3-yl)-3-{4-[1-(2-methyl-[1,8]naphthyridine-3-carbonyl)-piperidin-4-ylmethyl]-phenyl}-urea]"
15,10 to 500,"Cc1ccc(-n2nc(C(C)(C)C)cc2NC(=O)Nc2ccc(CC3CCN(C(=O)c4cccnc4C)CC3)cc2)cc1 [Compound A251, 1-(5-tert-Butyl-2-p-tolyl-2H-pyrazol-3-yl)-3-{4-[1-(2-methyl-pyridine-3-carbonyl)-piperidin-4-ylmethyl]-phenyl}-urea]"
16,10 to 500,"Cc1ccc(-n2nc(C(C)(C)C)cc2NC(=O)Nc2ccc(CC3CCN(C(=O)c4cnc5ccccc5n4)CC3)cc2)cc1 [Compound A257, 1-(5-tert-Butyl-2-p-tolyl-2H-pyrazol-3-yl)-3-{4-[1-(quinoxaline-2-carbonyl)-piperidin-4-ylmethyl]-phenyl}-urea]"
17,10 to 500,"Cc1ccc(-n2nc(C(C)(C)C)cc2NC(=O)Nc2ccc(CC3CCN(C(=O)C4CCCO4)CC3)cc2)cc1 (centres unmarked) [Compound A258, 1-(5-tert-Butyl-2-p-tolyl-2H-pyrazol-3-yl)-3-{4-[1-(tetrahydro-furan-2-carbonyl)-piperidin-4-ylmethyl]-phenyl}-urea]"
18,10 to 500,"COc1ccc(C(=O)N2CCC(Cc3ccc(NC(=O)Nc4cc(C(C)(C)C)nn4-c4ccc(C)cc4)cc3)CC2)cc1OC [Compound A261, 1-(5-tert-Butyl-2-p-tolyl-2H-pyrazol-3-yl)-3-{4-[1-(3,4-dimethoxy-benzoyl)-piperidin-4-ylmethyl]-phenyl}-urea]"
19,10 to 500,"COc1ccc(CC(=O)N2CCC(Cc3ccc(NC(=O)Nc4cc(C(C)(C)C)nn4-c4ccc(C)cc4)cc3)CC2)cc1OC [Compound A262, 1-(5-tert-Butyl-2-p-tolyl-2H-pyrazol-3-yl)-3-(4-{1-[2-(3,4-dimethoxy-phenyl)-acetyl]-piperidin-4-ylmethyl}-phenyl)-urea]"
20,10 to 500,"Cc1ccc(-n2nc(C(C)(C)C)cc2NC(=O)Nc2ccc(CC3CCN(C(=O)Cc4ccc5c(c4)OCO5)CC3)cc2)cc1 [Compound A263, 1-{4-[1-(2-Benzo[1,3]dioxol-5-yl-acetyl)-piperidin-4-ylmethyl]-phenyl}-3-(5-tert-butyl-2-p-tolyl-2H-pyrazol-3-yl)-urea]"
21,10 to 500,"COc1cc(OC)cc(C(=O)N2CCC(Cc3ccc(NC(=O)Nc4cc(C(C)(C)C)nn4-c4ccc(C)cc4)cc3)CC2)c1 [Compound A266, 1-(5-tert-Butyl-2-p-tolyl-2H-pyrazol-3-yl)-3-{4-[1-(3,5-dimethoxy-benzoyl)-piperidin-4-ylmethyl]-phenyl}-urea]"
22,10 to 500,"Cc1ccc(-n2nc(C(C)(C)C)cc2NC(=O)Nc2ccc(CC3CCN(C(=O)c4cccc(C(C)C#N)c4)CC3)cc2)cc1 (centres unmarked) [Compound A272, 1-(5-tert-Butyl-2-p-tolyl-2H-pyrazol-3-yl)-3-(4-{1-[3-(cyano-methyl-methyl)-benzoyl]-piperidin-4-ylmethyl}-phenyl)-urea]"
23,10 to 500,"Cc1ccc(-n2nc(C(C)(C)C)cc2NC(=O)Nc2ccc(CC3CCN(C(=O)CCc4ccco4)CC3)cc2)cc1 [Compound A274, 1-(5-tert-Butyl-2-p-tolyl-2H-pyrazol-3-yl)-3-{4-[1-(3-furan-2-yl-propionyl)-piperidin-4-ylmethyl]-phenyl}-urea]"
24,10 to 500,"Cc1ccc(-n2nc(C(C)(C)C)cc2NC(=O)Nc2ccc(CC3CCN(C(=O)c4ccoc4)CC3)cc2)cc1 [Compound A286, 1-(5-tert-Butyl-2-p-tolyl-2H-pyrazol-3-yl)-3-{4-[1-(furan-3-carbonyl)-piperidin-4-ylmethyl]-phenyl}-urea]"
25,10 to 500,"COc1cccc(CC(=O)N2CCC(Cc3ccc(NC(=O)Nc4cc(C(C)(C)C)nn4-c4ccc(C)cc4)cc3)CC2)c1 [Compound A288, 1-(5-tert-Butyl-2-p-tolyl-2H-pyrazol-3-yl)-3-(4-{1-[2-(3-methoxy-phenyl)-acetyl]-piperidin-4-ylmethyl}-phenyl)-urea]"
26,10 to 500,"Cc1ccc(-n2nc(C(C)(C)C)cc2NC(=O)Nc2ccc(CC3CCN(C(=O)c4cc(C)c(C)o4)CC3)cc2)cc1 [Compound A298, 1-(5-tert-Butyl-2-p-tolyl-2H-pyrazol-3-yl)-3-{4-[1-(4,5-dimethyl-furan-2-carbonyl)-piperidin-4-ylmethyl]-phenyl}-urea]"
27,10 to 500,"Cc1ccc(-n2nc(C(C)(C)C)cc2NC(=O)Nc2ccc(CC3CCN(C(=O)c4ccc(-c5cnco5)cc4)CC3)cc2)cc1 [Compound A301, 1-(5-tert-Butyl-2-p-tolyl-2H-pyrazol-3-yl)-3-{4-[1-(4-oxazol-5-yl-benzoyl)-piperidin-4-ylmethyl]-phenyl}-urea]"
28,10 to 500,"Cc1ccc(-n2nc(C(C)(C)C)cc2NC(=O)Nc2ccc(CC3CCN(C(=O)c4ccc(OC(F)F)cc4)CC3)cc2)cc1 [Compound A306, 1-(5-tert-Butyl-2-p-tolyl-2H-pyrazol-3-yl)-3-{4-[1-(4-difluoromethoxy-benzoyl)-piperidin-4-ylmethyl]-phenyl}-urea]"
29,10 to 500,"Cc1ccc(-n2nc(C(C)(C)C)cc2NC(=O)Nc2ccc(CC3CCN(C(=O)c4ccc(N)c(OC(F)(F)F)c4)CC3)cc2)cc1 [Compound A309, 1-{4-[1-(4-Amino-3-trifluoromethoxy-benzoyl)-piperidin-4-ylmethyl]-phenyl}-3-(5-tert-butyl-2-p-tolyl-2H-pyrazol-3-yl)-urea]"

# From patent publication US7541368B2, “Pyrazoles as inhibitors of tumor necrosis factor” (Aventis Pharmaceuticals Inc., priority 2003, dated 2009)
